Where two headings read alike, the source gives them in different places.
System: MDD patients carrying the indicated conditions
Conditions: with SSRI
Protocol: Folate levels are classified as either low (<=2.5 ng/ml) or normal; and homocysteine levels as either normal or elevated (>=[…]). The presence or absence of at least one […] allele for the MTHFR gene are entered as a dichotomous variable (present or absent). […] Using folate as an example predicator, the presence or absence of a low serum-folate level along with treatment assignment can be entered in a 2×2, factorial ANOVA, using depression improvement scores (baseline minus endpoint HAM-D-17 scores) as the dependant variable. […] Similar analyses (i.e. separate 2×2 ANOVA's) can be performed substituting the presence of low folate levels for the presence of other predictors as described herein. Similarly, the effect of other predictors can be indicated by the interaction term representing the potential modulating influence of those variables.
Particularly, specific genetic and biomarkers that were assessed include the following: • (a) BMI calculation of at least about 30 kg/m^2; • (b) an expression ratio of SAM/SAH smaller than 2.8 (e.g., 2.71) as measured in a plasma sample; • (c) a level of 4-HNE no less than 3.28 μg/mL (as measured in a plasma sample); • (d) presence of rare variants CT or TT at position 677 of SEQ ID NO: 1 corresponding to a portion of a genomic nucleic acid sequence of methylenetetrahydrofolate reductase (MTHFR) (abbreviated as “MTHFR 677” below); • (e) presence of rare variants AG or GG at position 2756 of SEQ ID NO: 2 corresponding to a portion of genomic nucleic acid sequence of methionine synthase (MTR) (abbreviated as “MTR 2756” below); and • (f) presence of rare variants AG or GG at position 66 of SEQ ID NO: 3 corresponding to a portion of genomic nucleic acid sequence of methionine synthase reductase (MTRR) (abbreviated as “MTRR 66” below).
The efficacy effect is determined by measuring the mean change in the HAMD-17 score and HAMD-28 score by the end of Phase I and Phase II, as compared to the baseline.

[1] = Phase I, interaction of BMI with the treatment
[2] = Phase I, interaction of HNE-his with the treatment
[3] = Phase I, interaction of SAM/SAH with the treatment
[4] = Phase II, 25 =< BMI < 30 kg/m^2 (18, 10)

CN1c2c(nc(N)[nH]c2=O)NC[C@@H]1CNc1ccc(C(=O)N[C@@H](CCC(=O)O)C(=O)O)cc1 [6(S)-5-MTHF, 6(S)-5-methyltetrahydrofolate]
Effect, change in HAMD-17 score (Phase I, MTRR 66 AA and HNE-His < median (8,5)): −1.167
Effect, change in HAMD-28 score (Phase I, MTRR 66 AA and HNE-His < median = 3.28 (plasma sample)): −4.167
Effect, change in HAMD-17 score (Phase I, MTRR 66 AA and SAM/SAH >= median (9,6)): −0.125
Effect, change in HAMD-28 score (Phase I, MTRR 66 AA and SAM/SAH >= median): 0.500
Effect, change in HAMD-17 score (Phase I, MTRR 66 AG or GG and HNE-His >= median (24,11)): −5.958
Effect, change in HAMD-28 score (Phase I, MTRR 66 AG or GG and HNE-His >= median): −6.975
Effect, change in HAMD-17 score (Phase I, MTRR 66 AG or GG and SAM/SAH < median (24,10)): −5.062
Effect, change in HAMD-28 score (Phase I, MTRR 66 AG or GG and SAM/SAH < median = 2.71 (plasma sample)): −6.498
Effect, change in HAMD-17 score (Phase I, SAM/SAH < median and HNE-His >= median (19,7)): −3.670
Effect, change in HAMD-28 score (Phase I, SAM/SAH < median and HNE-His >= median): −4.227
Effect, change in HAMD-17 score (Phase I, SAM/SAH >= median and HNE-His < median (18,8)): −0.250
Effect, change in HAMD-28 score (Phase I, SAM/SAH >= median and HNE-His < median): −0.750
Effect, change in HAMD-17 score: BMI*treat [1]: −0.567
Effect, change in HAMD-28 score: BMI*treat [1]: −0.668
Effect, change in HAMD-17 score: HNE-his*treat [2]: −0.465
Effect, change in HAMD-28 score: HNE-his*treat [2]: −0.133
Effect, change in HAMD-17 score: SAM/SAH*treat [3]: 0.495
Effect, change in HAMD-28 score: SAM/SAH*treat (last line) [3]: 0.972
Effect, change in HAMD-17 score: baseHAMD-17*treat (Phase I, interaction of base HAMD-17 with the treatment): 0.165
Effect, change in HAMD-28 score: SAM/SAH*treat (first line under HAMD28) (Phase I, interaction with the treatment): 0.495
Effect, change in HAMD-17 score [4]: 2.000
Effect, change in HAMD-28 score [4]: 0.000
Effect, change in HAMD-17 score (Phase II, BMI < 25 (14, 7)): −1.400
Effect, change in HAMD-28 score (Phase II, BMI < 25 (14, 7)): −2.300
Effect, change in HAMD-17 score (Phase II, BMI < 30 kg/m^2 and HNE-His < median (19, 9)): 3.667
Effect, change in HAMD-28 score (Phase II, BMI < 30 kg/m^2 and HNE-His < median): 1.833
Effect, change in HAMD-17 score (Phase II, BMI < 30 kg/m^2 and SAM/SAH >= median (16,8)): 1.500
Effect, change in HAMD-28 score (Phase II, BMI < 30 kg/m^2 and SAM/SAH >= median): 2.500
Effect, change in HAMD-28 score (Phase II, BMI >= 30 kg/m^2 (40,21)): −3.245
Effect, change in HAMD-17 score (Phase II, BMI >= 30 kg/m^2 and HNE-His >= median (23, 11)): −4.233
Effect, change in HAMD-28 score (Phase II, BMI >= 30 kg/m^2 and HNE-His >= median): −4.933
Effect, change in HAMD-17 score (Phase II, BMI >= 30 kg/m^2 and SAM/SAH < median (21,9)): −9.200
Effect, change in HAMD-28 score (Phase II, BMI >= 30 kg/m^2 and SAM/SAH < median = 2.71 (plasma sample)): −10.350
Effect, change in HAMD-17 score (Phase II, MTHFR 677 CC and BMI < 30 kg/m^2 (17,8)): −2.267
Effect, change in HAMD-28 score (Phase II, MTHFR 677 CC and BMI < 30 kg/m^2): −3.000
Effect, change in HAMD-17 score (Phase II, MTHFR 677 CC and HNE-His < median (20,11)): −0.857
Effect, change in HAMD-28 score (Phase II, MTHFR 677 CC and HNE-His < median = 3.28 (plasma sample)): −0.536
Effect, change in HAMD-17 score (Phase II, MTHFR 677 CC and MTR 2756 AA (29,13)): −0.571
Effect, change in HAMD-28 score (Phase II, MTHFR 677 CC and MTR 2756 AA): 0.048
Effect, change in HAMD-17 score (Phase II, MTHFR 677 CT or TT and BMI >= 30 kg/m^2 (13,6)): −7.333
Effect, change in HAMD-28 score (Phase II, MTHFR 677 CT or TT and BMI >= 30 kg/m^2): −8.667
Effect, change in HAMD-17 score (Phase II, MTHFR 677 CT or TT and HNE-His >= median (11,6)): −7.500
Effect, change in HAMD-28 score (Phase II, MTHFR 677 CT or TT and HNE-His >= median): −7.500
Effect, change in HAMD-17 score (Phase II, MTHFR 677 CT or TT and MTR 2756 AG or GG (8,4)): −10.33
Effect, change in HAMD-28 score (Phase II, MTHFR 677 CT or TT and MTR 2756 AG or GG): −13.00
Effect, change in HAMD-17 score (Phase II, MTR 2756 AA (45,21)): −0.427
Effect, change in HAMD-17 score (Phase II, MTR 2756 AA and BMI < 30 kg/m^2 (17,7)): 1.167
Effect, change in HAMD-28 score (Phase II, MTR 2756 AA and BMI < 30 kg/m^2): 0.917
Effect, change in HAMD-17 score (Phase II, MTR 2756 AA and HNE-His < median (26,13)): 0.300
Effect, change in HAMD-28 score (Phase II, MTR 2756 AA and HNE-His < median): −0.125
Effect, change in HAMD-17 score (Phase II, MTR 2756 AA and MTRR 66 AA (11,5)): −8.000
Effect, change in HAMD-17 score (Phase II, MTR 2756 AA and MTRR 66 AA and BMI < 30 kg/m^2 (7,4)): −4.333
Effect, change in HAMD-28 score (Phase II, MTR 2756 AA and MTRR 66 AA and BMI < 30 kg/m^2): −4.667
Effect, change in HAMD-17 score (Phase II, MTR 2756 AA and MTRR 66 AA and HNE-His < median (6,4)): −8.667
Effect, change in HAMD-28 score (Phase II, MTR 2756 AA and MTRR 66 AA and HNE-His < median = 3.28 (plasma sample)): −9.000
Effect, change in HAMD-17 score (Phase II, MTR 2756 AA and MTRR 66 AA and SAM/SAH >= median (6,3)): −7.000
Effect, change in HAMD-28 score (Phase II, MTR 2756 AA and MTRR 66 AA and SAM/SAH >= median): −7.500

Source: patent US9540691B2, “Assays and methods for selecting a treatment regimen for a subject with depression” (THE GENERAL HOSPITAL CORPORATION, priority 2011, dated 2017)
